From ChEMBL document CHEMBL1134855, “Synthesis and hypoglycemic evaluation of substituted pyrazole-4-carboxylic acids” (2002)

Assays:
Type in all cases: functional
[1] = test system: Rattus norvegicus; assay: Evolution of glycemia 2 hr after first administration at the dose of 200 mg/kg in rat
[2] = test system: Rattus norvegicus; assay: Evolution of glycemia 2 hr after first administration at the dose of 20 mg/kg in rat
[3] = test system: Rattus norvegicus; assay: Evolution of glycemia 2 hr after the last administration for 4 days chronic treatment at the dose of 200 mg/kg in rat
[4] = test system: Rattus norvegicus; assay: Evolution of glycemia 2 hr after the last administration for 4 days chronic treatment at the dose of 20 mg/kg in rat

SMILES	Glyceamia evolution [1]	Glyceamia evolution [2]	Glyceamia evolution [3]	Glyceamia evolution [4]
O=C(O)c1c[nH]nc1OCc1ccccc1	-1%	1%	-15%	-24%
COc1nn(Cc2ccc(-c3ccccc3C#N)cc2)cc1C(=O)O	1%	-5%	-3%	-10%
N#Cc1ccccc1-c1ccc(Cn2cc(C(=O)O)c(OCc3ccccc3)n2)cc1	-4%	-5%	-3%	-10%
COc1nn(C)cc1C(=O)O	-5%	-7%	-10%	-10%
Cn1cc(C(=O)O)c(OCc2ccccc2)n1	-5%	-4%	-4%	2%
C=CCn1cc(C(=O)O)c(OC)n1	5%	3%	6%	1%
O=C(O)c1cn(Cc2nn[nH]n2)nc1OCc1ccccc1	-2%	0%	-7%	-7%
COc1nn(CC=C(C)C)cc1C(=O)O	-8%	3%	-11%	-3%
N#Cc1ccccc1-c1ccc(COc2n[nH]cc2C(=O)O)cc1	0%	-7%	-5%	-11%
COC(=O)CCn1cc(C(=O)O)c(OCc2ccccc2)n1	-13%	-3%	-3%	-7%
CCOC(=O)Cn1cc(C(=O)O)c(OCc2ccccc2)n1	0%	-8%	-3%	-6%
COc1[nH]ncc1C(=O)O	-4%	-19%	-8%	-20%
Cn1cc(C(=O)O)c(=O)[nH]1	-12%	0%	-16%	-12%
O=C(CCn1cc(C(=O)O)c(OCc2ccccc2)n1)Nc1ccc(Cl)cc1	-19%	-16%	-19%	-10%
CCOC(=O)CCCn1cc(C(=O)O)c(OCc2ccccc2)n1	-1%	-1%	-6%	-3%
O=C(O)c1c[nH]nc1O	7%	-12%	2%	-9%
O=C(O)c1cn(Cc2ccccc2)nc1OCc1ccccc1	-14%	-6%	-9%	-5%
CN(C)C(=N)NC(=N)N [METFORMIN]	-24%	–	-24%	–
